From patent US20240208898A1, “ENAMINE N-OXIDES: SYNTHESIS AND APPLICATION TO HYPOXIA-RESPONSIVE PRODRUGS AND IMAGING AGENTS” (DANA-FARBER CANCER INSTITUTE, INC., priority 2021, published 2024)

Test system: BxPC-3 pancreatic cancer cell line
Assay: In-gel fluorescence imaging of cells labeled by enamine N-oxides
Format: cell-based
Procedure: Cells were seeded at a density of 200,000 cells per well in media [2 mL, RPMI (A431, H460, HeLa, Bx-PC3, MDA-MB-231) or DMEM (U251) supplemented with 5% heat-inactivated human serum (Sigma), penicillin (100 units/mL), and streptomycin (0.1 mg/mL)] in 6-well plates. Cells were incubated at 37° C. under ambient atmosphere with 5% CO2. After 24 h, the media was aspirated and replaced with fresh media [1 mL, RPMI (A431, H460, HeLa, Bx-PC3, MDA-MB-231) or DMEM (U251) supplemented with 5% heat-inactivated human serum, penicillin (100 units/mL), and streptomycin (0.1 mg/mL)] containing enamine N-oxide probe (200 mM in ethanol; 10 μM final concentration). Plates were then incubated at 37° C. under ambient (20% pO2) or various oxygenated conditions (5%, 1%, or 0.1% pO2) with 5% CO2. Oxygenated conditions were maintained using a hypoxia chamber (ProOx C21, Biospherix) in a cell culture incubator. […] PBS (1 mL) was then added to each well and cells were scraped off with a cell scraper. The cell suspensions were placed into microcentrifuge tubes and pelleted by spinning at 10,000×g for 5 minutes at 4° C. The supernatant was then removed, and the pellet was dissolved with an SDS solution (100 μL, 1% SDS in 50 mM Tris buffer, pH 8.0). The protein concentration was determined by BCA assay following the manufacturer's protocol (Pierce). The sample was then labeled using the copper-catalyzed azide-alkyne cycloaddition (CuAAC). […] The dried pellet was then resuspended in an SDS solution (50 μL, 1% SDS in 50 mM Tris, pH 8.0), and the protein concentration was determined by BCA assay. […] In-gel fluorescence was visualized by a laser scanner (Typhoon™ FLA 9500, GE) and quantified using ImageJ software. […] Detection was mediated by an anti-rabbit IR680-dye conjugated secondary antibody (LI-COR Biosciences, 925-68071) and imaged using a fluorescence scanner (Odyssey CLx, LI-COR Biosciences).

Structure (SMILES) | labeling in cell culture (oxygen dependence) (BxPC-3, 48 h) | oxygen tension of probe activation (BxPC-3, over 48 h, CuAAC with TAMRA-azide) | labeling of cells under normoxia and hypoxia (Bx-PC3 cells, 10 μM, 12 h, in-gel fluorescence after CuAAC with TAMRA-azide)
C#CCCCCC(F)/C=C/[N+]([O-])(CC)CC (stereo not drawn) [probe 39, (E)-N,N-diethyl-3-fluoronon-1-en-8-yn-1-amine oxide] | oxygen-dependent labeling | ca. 1 % pO2 | –
C#CCN(CCCCCC(F)/C=C/[N+]([O-])(CC)CC)C(=O)c1ccc(C2=c3cc4c(cc3[Si](C)(C)c3cc5c(cc32)CCN5C)=[N+](C)CC4)c(C)c1 (stereo not drawn) [probe 42, Si700-enamine N-oxide] | – | – | labeled Bx-PC3 cells in a hypoxia-dependent manner
